Test results from patent US5786508A, “Substituted kynurenines and process for their preparation” (Pharmacia & Upjohn S.p.A., priority 1995, dated 1998).

Tests used:
[1] = test system: Kynurenine Aminotransferase (KAT); assay: Determination of KAT activity inhibition in rat brain homogenate; format: biochemical; details: 2 μM [3H]KYN, 2 h at 37° C., pH 8.0
Procedure: A) Determination of KAT activity inhibition in rat brain homogenate
KAT was measured as described in detail by Okuno et al. (Measurement of rat brain kynurenine amino-transferase at physiological kynurenine concentrations, J. Neurochem., 57, 533-540, 1991).
Briefly, animals were killed by decapitation and the brain tissue was homogenized (1:5 v/w in 5 mM Tris-acetate buffer, pH 8.0, containing 10 mM 2-mercaptoethanol and 50 μM pyridoxal 5'-phosphate) and incubated for 2 h at 37° C. in the presence of 2 μM [^3 H]KYN (30 nCi), 1 mM 2-oxoglutarate and 70 μM pyridoxal 5'-phosphate in 150 mM Tris-acetate buffer, pH 8.0. The reaction was terminated by the addition of trichloroacetic acid.
Newly synthesized [^3 H]KYNA was separated from [^3 H]KYN on a Dowex 50W cation-exchange column and quantitated by liquid scintillation spectrometry. Blanks were obtained by using tissue which had been heat-deactivated for 10 minutes in a boiling water bath.

KYNA production = assay: Determination of inhibition of KYNA production by rat tissue slices (cerebral cortex); format: cell-based; details: 50 μM L-KYN, 2 h at 37° C.
Procedure: B) Determination of inhibition of KYNA production by rat tissue slices
Routinely, slices (base 1×1 mm; weight 1.5 mg/slice) from the cerebral cortex were separated on ice and transferred to culture wells (10 slices/well) containing 1 ml of oxygenated Krebs-Ringer buffer (NaCl, 118.5 mM; KCl, 4.75 mM; CaCl2, 1.77 mM; MgSO4, 1.18 mM; NaH2 PO4, 12.9 mM; NaH2 PO4, 3 mM; glucose, 5 mM; pH 7.4). Subsequently, the tissue was preincubated for 10 min at 37° C. and incubated further for 2 h at 37° C., in the presence of 50 μM L-KYN in an oxygenated chamber, on a shaking water bath. Compounds of the present invention were included in the incubation mixture as needed. Following incubation, the culture wells were immediately placed on ice, and the slices were rapidly separated from the incubation medium. For KYNA determination, 1 ml samples of the incubation medium were immersed in a boiling water bath for 10 min, and the precipitated proteins were removed by centrifugation (8,730×g, 10 min). The supernatants were diluted (1:1, v/v) with 0.2M HCl and applied to Dowex 50W (hydrogen form, Sigma) cation-exchange columns (0.5×2 cm). Subsequently, the columns were washed with 1 ml of 0.1M HCl and 1 ml of water, and the fraction containing KYNA was eluted with 2 ml of water. The eluates were applied to a 3-μm C18 HPLC column (100×3.2 internal diameter, Bioanalytical Systems, West Lafayette, Ind., U.S.A.), and KYNA was isocratically eluted with a mobile phase containing 50 mM ammonium acetate and 5% methanol at a flow rate of 0.5 ml/min. Under these conditions, the retention time of KYNA was ≈7 min.
Data were recorded and calculated with a Hewlett-Packard 3390A integrator connected to a model 160 UV absorbance detector (Beckman Instruments, Berkeley, Calif., U.S.A.) set at 340 nm.

[2] = test system: glycine modulatory site of the N-methyl-D-aspartate (NMDA) receptor complex; details: J. Neurochem., 52, 1319-1328, 1989; in words; cited from earlier work
KAT = target: T1, KAT (Rattus norvegicus, UniProt Q08415); assay: Kinetic analysis of KAT inhibitors using a partially purified enzyme preparation; format: biochemical; details: KYN 2 μM to 2 mM; double reciprocal plots; pyruvate 1 mM; pH 8.0, 37° C.
T1 construct: a preparation of partially purified enzyme; from tissue; the cited method purifies from rat kidney and brain (own knowledge)
T1 sequence (Q08415 1-423): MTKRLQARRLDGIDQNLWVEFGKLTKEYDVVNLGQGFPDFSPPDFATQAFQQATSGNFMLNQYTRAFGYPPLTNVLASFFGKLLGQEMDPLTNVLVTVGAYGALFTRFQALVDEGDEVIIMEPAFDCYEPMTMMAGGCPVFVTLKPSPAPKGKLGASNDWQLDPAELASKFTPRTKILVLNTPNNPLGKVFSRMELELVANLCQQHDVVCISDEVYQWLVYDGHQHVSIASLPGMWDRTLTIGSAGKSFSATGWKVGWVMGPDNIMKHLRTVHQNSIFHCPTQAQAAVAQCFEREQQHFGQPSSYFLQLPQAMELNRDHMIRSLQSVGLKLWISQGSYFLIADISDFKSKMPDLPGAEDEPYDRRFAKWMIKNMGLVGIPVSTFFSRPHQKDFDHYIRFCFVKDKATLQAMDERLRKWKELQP
Procedure: C) Kinetic analysis of KAT inhibitors using a partially Purified enzyme Preparation (Brain Research, 534, 37-44 (1990)
The reaction mixture contained [^3 H]KYN (30 nCi), diluted with unlabelled KYN to yield a final concentration of 2 μM, 1 mM pyruvate, 70 μM pyridoxal 5'-phosphate, 150 mM Tris-acetate buffer, pH 8.0, and a preparation of partially purified enzyme in a total volume of 0.1 ml. Test compounds were included in the incubation mixture as needed. The reaction was started by the addition of pyruvate. After incubation for 2 h at 37° C., the reaction was terminated by the addition of 14 μl of 50% (w/w) trichloroacetic acid. Subsequently, 1 ml of 0.1M HCl was added and denaturated protein was removed by a 4-min centrifugation in a Beckman 52B microfuge. 1 ml of the resulting supernatant was applied to a Dowex 50W column (0.5×1.0 cm; H^+ form) and washed with 1 ml of 0.1M HCl, followed by 1 ml of distilled water. [^3 H]KYNA was eluted with 2 ml of distilled water and quantitated by liquid scintillation spectrometry. Enzyme measurements were performed in triplicate samples. […]
Kinetic experiments were performed using the standard KAT assay described above by varying the concentration of KYN between 2 μM and 2 mM in the absence or presence of set concentrations of test compounds. Double reciprocal plots were constructed and lines of best fit were determined by linear regression analysis.

Row | KYNA production % of inhibition ([1]; 100 μM) [%] | KYNA production % of inhibition ([1]; 1000 μM) [%] | Ki (KAT) [µM] | Km (KAT) [µM] | SMILES | inhibition at 1000 µM (KYNA production) [%] | inhibition at 300 µM (KYNA production; at 300 μM (footnote *)) [%] | inhibition at 100 µM (KYNA production) [%] | affinity to the glycine modulatory site of the NMDA receptor complex [2]
1 | 13 | 51 |  |  | Cc1ccc(N)c(C(=O)CC(N)C(=O)O)c1 (centres unmarked) [FCE 27946, 2-amino-4-(2-amino-5-methylphenyl)-4-oxo-butyric acid] | 64 | 50 |  | 
2 |  | 31 |  |  | Nc1ccc(Cl)cc1C(=O)C[C@@H](N)C(=O)O [FCE 28442, (R)-(+)-2-amino-4-(2-amino-5-chlorophenyl)-4-oxo-butyric acid] | 45 |  |  | 
3 | 30 | 78 |  |  | CCc1ccc(N)c(C(=O)CC(N)C(=O)O)c1 (centres unmarked) [FCE 28026, 2-amino-4-(2-amino-5-ethylphenyl)-4-oxo-butyric acid] | 49 |  | 8 | 
4 | 52 | 83 |  |  | Nc1ccc(Br)cc1C(=O)CC(N)C(=O)O (centres unmarked) [FCE 28264, 2-amino-4-(2-amino-5-bromophenyl)-4-oxo-butyric acid] | 72 |  | 58 | 
5 | 30 | 74 |  |  | Nc1ccc(F)cc1C(=O)CC(N)C(=O)O (centres unmarked) [FCE 27949, 2-amino-4-(2-amino-5-fluorophenyl)-4-oxo-butyric acid] | 70 |  | 48 | 
6 | 45 | 81 | 88 |  | Nc1ccc(Cl)cc1C(=O)CC(N)C(=O)O (centres unmarked) [FCE 27813, 2-amino-4-(2-amino-5-chlorophenyl)-4-oxo-butyric acid] | 84 |  | 63 | 
7 | 61 | 89 |  |  | Nc1ccc(Cl)cc1C(=O)C[C@H](N)C(=O)O [FCE 28443, (S)-(-)-2-amino-4-(2-amino-5-chlorophenyl)-4-oxo-butyric acid] | 91 |  | 67 | 

Second part, the compound before the results:

Row | SMILES | KYNA production % of inhibition ([1]; 100 μM) [%] | KYNA production % of inhibition ([1]; 1000 μM) [%] | Ki (KAT) [µM] | Km (KAT) [µM] | inhibition at 1000 µM (KYNA production) [%] | inhibition at 300 µM (KYNA production; at 300 μM (footnote *)) [%] | inhibition at 100 µM (KYNA production) [%] | affinity to the glycine modulatory site of the NMDA receptor complex [2]
8 | CC(C)c1ccc(N)c(C(=O)CC(N)C(=O)O)c1 (centres unmarked) [FCE 28441, 2-amino-4-(2-amino-5-isopropylphenyl)-4-oxo-butyric acid] | 45 | 72 |  |  | 54 |  | 5 | 
9 | Nc1ccc(C2CCCCC2)cc1C(=O)CC(N)C(=O)O (centres unmarked) [FCE 28263, 2-amino-4-(2-amino-5-cyclohexylphenyl)-4-oxo-butyric acid] | 47 | 77 |  |  | 45 |  | 28 | 
10 | O=C(O)c1cc(=O)c2ccccc2[nH]1 [KYNA, Kynurenic Acid] |  |  |  |  |  |  |  | particularly high affinity
11 | CCCc1ccc(N)c(C(=O)CC(N)C(=O)O)c1 (centres unmarked) [FCE 28244, 2-amino-4-(2-amino-5-n-propylphenyl)-4-oxo-butyric acid] | 50 | 72 |  |  | 70 |  | 27 | 
12 | Nc1ccccc1C(=O)C[C@H](N)C(=O)O [L-kynurenine, reference compound] |  |  |  | 369 |  |  |  | 
